In PubChem BioAssay AID1918932 (Molecular Pharmacology Branch, DTP, NCI, 2023):
Several values for one entry are separate records, joined by “and”; a condition that tells them apart may be missing. Identical values can stand only once.

System: 171881-019-R-J1-PDC complex spheroid viability
Assay: Anticancer human tumor 171881-019-R-J1-PDC patient-derived invasive breast carcinoma cell line growth inhibition
Conditions: for viability, T/C: stronger effect = lower value
In short: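 Multicellular complex spheroids of tumor cells with human endothelial cells (HUVEC) and mesenchymal stem cells; the LSD1 inhibitor iadademstat was combined with standard-of-care or investigational agents. Top concentration at or near clinical Cmax, half-log dilutions; final DMSO ≤0.25%.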

[1] = curve of first compound, second compound 0.1 µM
[2] = curve of first compound, second compound 0.316 µM
[3] = curve of first compound, second compound 1 µM
[4] = curve of first compound, second compound 3.16 µM
[5] = curve of first compound, second compound 10 µM
[6] = second compound 0.1 µM, first compound 0.00316 µM
[7] = second compound 0.1 µM, first compound 0.01 µM
[8] = second compound 0.1 µM, first compound 0.0316 µM
[9] = second compound 0.1 µM, first compound 0.1 µM
[10] = second compound 0.316 µM, first compound 0.00316 µM
[11] = second compound 0.316 µM, first compound 0.01 µM
[12] = second compound 0.316 µM, first compound 0.0316 µM
[13] = second compound 0.316 µM, first compound 0.1 µM
[14] = second compound 1 µM, first compound 0.00316 µM
[15] = second compound 1 µM, first compound 0.01 µM
[16] = second compound 1 µM, first compound 0.0316 µM
[17] = second compound 1 µM, first compound 0.1 µM
[18] = second compound 3.16 µM, first compound 0.00316 µM
[19] = second compound 3.16 µM, first compound 0.01 µM
[20] = second compound 3.16 µM, first compound 0.0316 µM
[21] = second compound 3.16 µM, first compound 0.1 µM
[22] = second compound 10 µM, first compound 0.00316 µM
[23] = second compound 10 µM, first compound 0.01 µM
[24] = second compound 10 µM, first compound 0.0316 µM
[25] = second compound 10 µM, first compound 0.1 µM
[26] = second compound 0.1 µM, first compound 0.316 µM
[27] = second compound 0.1 µM, first compound 1 µM
[28] = second compound 0.316 µM, first compound 0.316 µM
[29] = second compound 0.316 µM, first compound 1 µM
[30] = second compound 1 µM, first compound 0.316 µM
[31] = second compound 1 µM, first compound 1 µM
[32] = second compound 3.16 µM, first compound 0.316 µM
[33] = second compound 3.16 µM, first compound 1 µM
[34] = second compound 10 µM, first compound 0.316 µM
[35] = second compound 10 µM, first compound 1 µM
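Further: spheroids exposed to agents for 7 days after 3 days growth.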

For `Cn1ncnc1C1c2n[nH]c(=O)c3cc(F)cc(c23)NC1c1ccc(F)cc1` (configuration not stated), the viability, T/C (compound 0.000316 µM) was 92.8% and 99.4%, the viability, T/C (compound 0.001 µM) was 103% and 104% and the viability, T/C (compound 0.00316 µM) was 88% and 103%. The viability, T/C (compound 0.01 µM) was 102% and 99%, the viability, T/C (compound 0.0316 µM) was 82.2% and 97.7% and the viability, T/C (compound 0.1 µM) was 97.2% and 98.6%. For the same compound, the IC50 (curve of compound) was greater than 100 nM.

For `NS(=O)(=O)OCC1CC(n2ccc3c(NC4CCc5ccccc54)ncnc32)CC1O` (configuration not stated), the viability, T/C (compound 0.00949 µM) was 101% and 40.4%, the viability, T/C (compound 0.03 µM) was 44.4% and 34.8% and the viability, T/C (compound 0.0949 µM) was 25.8% and 27.8%. The viability, T/C (compound 0.3 µM) was 24.2% and 25.3%, the viability, T/C (compound 0.949 µM) was 25.5% and 29.9% and the viability, T/C (compound 3 µM) was 22.4% and 21.6%. The IC50 (curve of compound) was 26.9 nM and < 9.49 nM.

For `Nc1ncn(C2CC(O)C(CO)O2)c(=O)n1` (configuration not stated), the viability, T/C (compound 0.00316 µM) was 109% and 97.4%, the viability, T/C (compound 0.01 µM) was 122% and 97.5% and the viability, T/C (compound 0.0316 µM) was 128% and 95.1%. The viability, T/C (compound 0.1 µM) was 130% and 93.4%, the viability, T/C (compound 0.316 µM) was 120% and 91.2% and the viability, T/C (compound 1 µM) was 105% and 81.2%. For the same compound, the IC50 (curve of compound) was greater than 1000 nM.

For `Cn1ncnc1C1c2n[nH]c(=O)c3cc(F)cc(c23)NC1c1ccc(F)cc1` (configuration not stated) + NC1CC1c1ccc(-c2cccc(O)c2)cc1, the IC50 [1] was greater than 100 nM, the IC50 [2] was greater than 100 nM and the IC50 [3] was greater than 100 nM. It also gave an IC50 [4] greater than 100 nM, an IC50 [5] greater than 100 nM and a viability, T/C (second compound 0.1 µM, first compound 0.000316 µM) of 105%. It also gave a viability, T/C (second compound 0.1 µM, first compound 0.001 µM) of 106%, a viability, T/C [6] of 107% and a viability, T/C [7] of 104%. For the same compound, the viability, T/C [8] was 105%, the viability, T/C [9] was 102% and the viability, T/C (second compound 0.316 µM, first compound 0.000316 µM) was 106%. It also gave a viability, T/C (second compound 0.316 µM, first compound 0.001 µM) of 111%, a viability, T/C [10] of 109% and a viability, T/C [11] of 108%. The viability, T/C [12] was 108%, the viability, T/C [13] was 102% and the viability, T/C (second compound 1 µM, first compound 0.000316 µM) was 105%. It also gave a viability, T/C (second compound 1 µM, first compound 0.001 µM) of 106%, a viability, T/C [14] of 111% and a viability, T/C [15] of 108%. It also gave a viability, T/C [16] of 103%, a viability, T/C [17] of 103% and a viability, T/C (second compound 3.16 µM, first compound 0.000316 µM) of 97.2%. The viability, T/C (second compound 3.16 µM, first compound 0.001 µM) was 104%, the viability, T/C [18] was 101% and the viability, T/C [19] was 102%. It also gave a viability, T/C [20] of 98.6%, a viability, T/C [21] of 96.8% and a viability, T/C (second compound 10 µM, first compound 0.000316 µM) of 85.3%. It also gave a viability, T/C (second compound 10 µM, first compound 0.001 µM) of 91.2%, a viability, T/C [22] of 90.8% and a viability, T/C [23] of 83%. For the same compound, the viability, T/C [24] was 83.3% and the viability, T/C [25] was 81.3%.

For `CCN(c1cc(-c2ccc(CN3CCOCC3)cc2)cc(C(=O)NCc2c(C)cc(C)[nH]c2=O)c1C)C1CCOCC1`, the viability, T/C (compound 0.00949 µM) was 81.1% and 94.4%, the viability, T/C (compound 0.03 µM) was 86.6% and 102% and the viability, T/C (compound 0.0949 µM) was 92.5% and 86.2%. The viability, T/C (compound 0.3 µM) was 102% and 82.3%, the viability, T/C (compound 0.949 µM) was 89.9% and 64.9% and the viability, T/C (compound 3 µM) was 46.9% and 40.9%. For the same compound, the IC50 (curve of compound) was 2760 nM and 1950 nM.

Compound `COc1ccc([C@@H](O)c2cc(-c3ncnc4cc(N5CCOCC5)ccc34)c(F)cc2Cl)nn1` + NC1CC1c1ccc(-c2cccc(O)c2)cc1 has an IC50 [1] of 624 nM, an IC50 [2] of 672 nM and an IC50 [3] of 753 nM. For the same compound, the IC50 [4] was 804 nM, the IC50 [5] was 606 nM and the viability, T/C [8] was 100%. The viability, T/C [9] was 99.9%, the viability, T/C [26] was 78.9% and the viability, T/C [27] was 30.5%. It also gave a viability, T/C (second compound 0.1 µM, first compound 3.16 µM) of 7.18%, a viability, T/C (second compound 0.1 µM, first compound 10 µM) of 11% and a viability, T/C [12] of 103%. It also gave a viability, T/C [13] of 100%, a viability, T/C [28] of 81.2% and a viability, T/C [29] of 34.4%. It also gave a viability, T/C (second compound 0.316 µM, first compound 3.16 µM) of 8.07%, a viability, T/C (second compound 0.316 µM, first compound 10 µM) of 11% and a viability, T/C [16] of 108%. It also gave a viability, T/C [17] of 107%, a viability, T/C [30] of 85.9% and a viability, T/C [31] of 39.2%. For the same compound, the viability, T/C (second compound 1 µM, first compound 3.16 µM) was 8.76%, the viability, T/C (second compound 1 µM, first compound 10 µM) was 9.94% and the viability, T/C [20] was 104%. The viability, T/C [21] was 106%, the viability, T/C [32] was 92.1% and the viability, T/C [33] was 40.8%. It also gave a viability, T/C (second compound 3.16 µM, first compound 3.16 µM) of 7.82%, a viability, T/C (second compound 3.16 µM, first compound 10 µM) of 10.7% and a viability, T/C [24] of 84.8%. For the same compound, the viability, T/C [25] was 88.6%, the viability, T/C [34] was 75.2% and the viability, T/C [35] was 30.6%. The viability, T/C (second compound 10 µM, first compound 3.16 µM) was 8.18% and the viability, T/C (second compound 10 µM, first compound 10 µM) was 9.78%.

`COc1cc(Nc2ncc3c(n2)-c2ccc(Cl)cc2C(c2c(F)cccc2OC)=NC3)ccc1C(=O)O` + NC1CCC(NC2CC2c2ccccc2)CC1 showed an IC50 [1] greater than 1000 nM, an IC50 [2] greater than 1000 nM and an IC50 [3] greater than 1000 nM. The IC50 [4] was greater than 1000 nM, the IC50 [5] was greater than 1000 nM and the viability, T/C [6] was 105%. The viability, T/C [7] was 99.2%, the viability, T/C [8] was 100% and the viability, T/C [9] was 99.6%. For the same compound, the viability, T/C [26] was 93.7%, the viability, T/C [27] was 60.1% and the viability, T/C [10] was 111%. The viability, T/C [11] was 92.9%, the viability, T/C [12] was 98.6% and the viability, T/C [13] was 95.9%. The viability, T/C [28] was 92.4%, the viability, T/C [29] was 59.2% and the viability, T/C [14] was 112%. For the same compound, the viability, T/C [15] was 107%, the viability, T/C [16] was 93.5% and the viability, T/C [17] was 105%. For the same compound, the viability, T/C [30] was 88.5%, the viability, T/C [31] was 62.2% and the viability, T/C [18] was 110%. The viability, T/C [19] was 104%, the viability, T/C [20] was 95.7% and the viability, T/C [21] was 88.3%. The viability, T/C [32] was 92%, the viability, T/C [33] was 60.9% and the viability, T/C [22] was 113%. The viability, T/C [23] was 111%, the viability, T/C [24] was 97.6% and the viability, T/C [25] was 104%. It also gave a viability, T/C [34] of 86.7% and a viability, T/C [35] of 60.7%.

With `Nc1ccn(C2OC(CO)C(O)C2(F)F)c(=O)n1` (configuration not stated) the viability, T/C (compound 0.000949 µM) was 73.3% and 67.7%, the viability, T/C (compound 0.003 µM) was 53.2% and 58.2% and the viability, T/C (compound 0.00949 µM) was 57.9% and 55.9%. For the same compound, the viability, T/C (compound 0.03 µM) was 62.1% and 61.5%, the viability, T/C (compound 0.0949 µM) was 64.6% and 63.9% and the viability, T/C (compound 0.3 µM) was 58.1% and 64.4%. It also gave an IC50 (curve of compound) greater than 300 nM.

With `NC1CCC(NC2CC2c2ccccc2)CC1` (configuration not stated) the viability, T/C (compound 0.316 µM) was 79.8% and 83.8% and 81.9% and the IC50 (compound alone, run of 02/15/2022) was greater than 10000 nM.
